Source: US12576169B2, “Silicon-fluoride acceptor substituted radiopharmaceuticals and precursors thereof” (Technische Universität München, priority 2019, dated 2026)
Read-outs that look alike come from different tables or passages of the source. *1 amine or outer side, *2 acyl side, *3 side chain or, on linkers, in order; H or OH if unused. Where a SMILES comes first, the peptide text is derived from it. Side-chain parts run from the residue outwards. [ ]: non-standard residue; d: D form. The star is where a group is joined. X1 = O=C(O)CC[C@H](NC(=O)N[C@@H](CCC(=O)N[C@H](CCCN*)C(=O)O)C(=O)O)C(=O)O; Benzoyl(4-SiFtBu2) = CC(C)(C)[Si](F)(c1ccc(C(=O)*)cc1)C(C)(C)C; γGlu = O=C(O)[C@H](CCC(=O)[*:2])N[*:1]; dCit = NC(=O)NCCC[C@@H](N)C(=O)O; Suc = O=C(CCC(=O)[*:2])[*:1]; dDap = NC[C@@H](N)C(=O)O; CO = O=C([*:1])[*:2]

Experiments:
[1] = n-Octanol-PBS partition coefficient (logD7.4); assay type: physicochemical; details: 18F-labeled ligand; n-octanol/PBS pH=7.4; mean ± SD (n = 5)
Protocol: Approx. 0.5 MBq of the ^18F-labeled SiFA-PSMA ligand were added into a test tube containing n-octanol (500 μL) and PBS (500 μL, pH=7.4). After vigorously shaking the two-phase mixture for 3 min at rt, the test tube was centrifuged at 9.000 rpm for 5 min to achieve quantitative phase separation. Finally, 150 μL of each layer were pipetted off and measured for activity using a gamma counter. After repeating the experiment for at least five times, the n-octanol-PBS partition coefficient log D7.4 was calculated according to following formula.

LNCaP cells = assay: Internalization of 18F-labeled ligands into LNCaP cells; assay type: cell-based, human; details: internalized activity at 1 h in % of reference [125I]XII; c = 0.5 nM; LNCaP cells (125.000 cells/well); 37° C., DMEM/F-12 add. 5% BSA; corrected for non-specific binding (10 μm PMPA); mean ± SD (n = 3)
Protocol: LNCaP cells were grown in DMEM/F-12 (add. 10% FCS, v/v) and maintained at 37° C. in a humidified 5% CO2 atmosphere. […] Subsequent to the removal of the culture medium, cells were washed with DMEM-F12 (add. 5% BSA, v/v, 500 μL) and left to equilibrate in DMEM-F12 (add. 5% BSA, v/v, 200 μL) at 37° C. for 15 min. Each well was treated with either DMEM-F12 (add. 5% BSA, v/v, 25 μL) or a 2-(phosphonomethyl)-pentandioic acid (PMPA) solution (100 μM in PBS, 25 μL) for blockade. Afterwards, the ^18F-labeled SiFA-PSMA ligand (5 nM in PBS, 25 μL) was added and the cells were incubated for 1 h at 37° C. The experiment was terminated by placing the 24-well plate on ice for 3 min and removal of the assay medium. Each well was rinsed with HBSS (4° C., 250 μL) and the fractions were combined with the previous assay medium, representing the amount of unbound radioligand. For removal of surface bound activity, LNCaP cells were incubated with PMPA solution (10 μM in PBS, 4° C., 250 μL) for 5 min and rinsed again with PBS (250 μL, 4° C.). The internalized activity was determined by incubation of LNCaP cells with 1 M aq. NaOH (250 μL) for at least 10 min and combination with the fraction of a subsequent wash step with 1 M aq. NaOH (200 μL). Each experiment (control and blockade) was performed in triplicate. […] All internalization studies were accompanied by reference studies using the reference compound XII (2 nM in HBSS add. 1% BSA, v/v), which were performed analogously. Data were corrected for non-specific internalization and normalized to the specific-internalization observed for the radioiodinated reference compound.

[2] = target: T1, human serum albumin (HSA) (Homo sapiens, UniProt P02768); assay: Binding to HSA on a Chiralpak HSA column; assay type: in vitro ADME; details: calibration with nine reference substances
T1 construct: purchased H13H-2433
Protocol: For the determination of human serum albumin (HSA) binding, a Chiralpak HSA column (50×3 mm, 5 μm, H13H-2433) was used at a constant flow rate of 0.5 mL/min. The mobile phase composed of a 50 mM NH4OAc solution in water with pH=7 (solvent C) and isopropanol (solvent D) was freshly prepared for each experiment and used only once. The reference substances (Table 1) as well as the analyzed SiFA-PSMA ligands were dissolved in a mixture of solvent C/solvent D (1:1, v/v, 0.5 mg/mL) and eluted from the HSA column (0-3 min: 100% C, 3-20 min: 20% D in C, λ=254 nm). The column was kept at rt and each run was stopped after detection of the signal to reduce the acquisition time. The nine reference substances display an HSA binding range of 13% to 99% and were injected consecutively in order to establish a sigmoidal calibration curve with the software OriginPro 2018b (FIG. 1).

PSMA = PSMA (Homo sapiens, UniProt Q04609); assay: IC50 determination: PSMA binding affinity, competition with [125I]XII on LNCaP cells
Protocol: LNCaP cells were grown in Dulbecco's Modified Eagle Medium/Nutrient Mixture F-12 (DMEM/F-12, add. 10% fetal calf serum (FCS), v/v) and maintained at 37° C. in a humidified 5% CO2 atmosphere. […] After removal of the culture medium, LNCaP cells were treated with HBSS (add. 1% BSA, v/v, 4° C., 500 μL) and subsequently left 15 min on ice for equilibration in HBSS (add. 1% BSA, v/v, 4° C., 200 μL). […] For the control series, HBSS (add. 1% BSA, v/v, 25 μL) was used instead of the SiFA-PSMA ligand solution. Each concentration and the control were prepared in triplicate. After 1 h incubation on ice, the assay medium was removed and cells were washed with HBSS (200 μL, 4° C.). […] NaOH (200 μL) for at least 10 min and the resulting cell lysate was removed. The wells were treated again with 1 M aq. […] The experiment was repeated for at least three times and the IC50 value calculated using the GraphPad PRISM 8.0.2 software (Graphpad Software Inc., La Jolla, United States).

[3] = LNCaP cells (150.000 cells/well), reference [125I]XII c = 0.2 nM, 1 h, 4° C., HBSS add. 1% BSA, mean ± SD (n = 3)

T1 sequence (P02768 25-609): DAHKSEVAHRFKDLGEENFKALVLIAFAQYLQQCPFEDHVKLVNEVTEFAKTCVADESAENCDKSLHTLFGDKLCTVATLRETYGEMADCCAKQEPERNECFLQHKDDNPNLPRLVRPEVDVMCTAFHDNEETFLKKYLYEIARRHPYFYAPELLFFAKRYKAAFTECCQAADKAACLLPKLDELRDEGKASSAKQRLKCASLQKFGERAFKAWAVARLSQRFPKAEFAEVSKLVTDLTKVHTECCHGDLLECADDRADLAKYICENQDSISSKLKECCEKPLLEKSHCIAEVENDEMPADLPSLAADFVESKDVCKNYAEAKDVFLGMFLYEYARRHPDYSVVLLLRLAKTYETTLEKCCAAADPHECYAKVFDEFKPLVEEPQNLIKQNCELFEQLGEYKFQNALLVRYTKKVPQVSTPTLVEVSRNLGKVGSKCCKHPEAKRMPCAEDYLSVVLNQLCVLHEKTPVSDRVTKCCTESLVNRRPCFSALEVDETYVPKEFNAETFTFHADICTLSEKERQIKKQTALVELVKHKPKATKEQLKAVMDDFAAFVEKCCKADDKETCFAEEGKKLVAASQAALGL
Sequence of PSMA (Q04609 whole entry): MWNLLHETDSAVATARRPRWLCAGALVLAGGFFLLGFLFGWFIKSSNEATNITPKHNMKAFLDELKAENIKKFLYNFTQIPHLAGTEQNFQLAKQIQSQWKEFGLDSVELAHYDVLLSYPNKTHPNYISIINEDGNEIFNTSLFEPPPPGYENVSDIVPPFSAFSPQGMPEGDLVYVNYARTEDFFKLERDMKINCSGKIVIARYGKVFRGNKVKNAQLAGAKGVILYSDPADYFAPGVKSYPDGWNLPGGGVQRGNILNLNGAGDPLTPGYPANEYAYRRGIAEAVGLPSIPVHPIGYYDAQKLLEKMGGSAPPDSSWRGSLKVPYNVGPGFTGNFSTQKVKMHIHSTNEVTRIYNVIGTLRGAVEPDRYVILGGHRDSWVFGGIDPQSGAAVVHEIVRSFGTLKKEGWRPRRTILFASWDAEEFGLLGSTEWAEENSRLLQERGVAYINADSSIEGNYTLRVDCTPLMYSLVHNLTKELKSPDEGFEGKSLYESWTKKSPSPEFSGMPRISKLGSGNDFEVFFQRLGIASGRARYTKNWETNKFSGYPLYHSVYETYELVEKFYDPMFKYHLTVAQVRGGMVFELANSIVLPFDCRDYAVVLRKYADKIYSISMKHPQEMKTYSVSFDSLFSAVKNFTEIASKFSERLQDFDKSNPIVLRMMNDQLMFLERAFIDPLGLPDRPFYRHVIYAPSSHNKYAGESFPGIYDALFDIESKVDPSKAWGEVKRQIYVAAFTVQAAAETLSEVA

Row | SMILES | logD7.4 [1] | Internalization (LNCaP cells) | Binding to HSA [2] | IC50 (PSMA; [3]) | IC50 (PSMA)
1 | CC(C)(C)[Si](F)(c1ccc(C(=O)NC[C@@H](NC(=O)[C@@H](CCCCN)NC(=O)CC[C@H](NC(=O)N[C@@H](CCC(=O)O)C(=O)O)C(=O)O)C(=O)N[C@H](CCCCNC(=O)CCC(=O)NCCC[C@@H](NC(=O)CC[C@H](NC(=O)N[C@@H](CCC(=O)O)C(=O)O)C(=O)O)C(=O)O)C(=O)O)cc1)C(C)(C)C [SiFA-PSMA ligand 01 g] | −3.71 ± 0.03 | 104.75 ± 4.37% | 98.9% | 8.7 ± 0.7 nM | –
2 | CC(C)(C)[Si](F)(c1ccc(C(=O)NC[C@@H](NC(=O)[C@H](CCCCN)NC(=O)CC[C@H](NC(=O)N[C@@H](CCC(=O)O)C(=O)O)C(=O)O)C(=O)N[C@H](CCCCNC(=O)CCC(=O)NCCC[C@@H](NC(=O)CC[C@H](NC(=O)N[C@@H](CCC(=O)O)C(=O)O)C(=O)O)C(=O)O)C(=O)O)cc1)C(C)(C)C [SiFA-PSMA ligand 01 h] | −3.71 ± 0.16 | 142.95 ± 7.49% | 98.7% | 8.7 ± 0.6 nM | –
3 | CC(C)(C)[Si](F)(c1ccc(C(=O)NC[C@@H](NC(=O)CNC(=O)CC[C@H](NC(=O)N[C@@H](CCC(=O)O)C(=O)O)C(=O)O)C(=O)N[C@H](CCCCNC(=O)CCC(=O)NCCC[C@@H](NC(=O)CC[C@H](NC(=O)N[C@@H](CCC(=O)O)C(=O)O)C(=O)O)C(=O)O)C(=O)O)cc1)C(C)(C)C [SiFA-PSMA ligand 01 i] | −3.96 ± 0.04 | 160.83 ± 2.72% | 98.9% | 8.8 ± 1.7 nM | –
4 | C[C@H](O)[C@@H](NC(=O)CC[C@H](NC(=O)N[C@@H](CCC(=O)O)C(=O)O)C(=O)O)C(=O)N[C@H](CNC(=O)c1ccc([Si](F)(C(C)(C)C)C(C)(C)C)cc1)C(=O)N[C@H](CCCCNC(=O)CCC(=O)NCCC[C@@H](NC(=O)CC[C@H](NC(=O)N[C@@H](CCC(=O)O)C(=O)O)C(=O)O)C(=O)O)C(=O)O [SiFA-PSMA ligand 01 j] | −3.86 ± 0.07 | 120.83 ± 0.92% | ≥98.9% | 9.2 ± 1.2 nM | –
5 | CC(C)(C)[Si](F)(c1ccc(C(=O)NC[C@@H](NC(=O)[C@@H](Cc2ccccc2)NC(=O)CC[C@H](NC(=O)N[C@@H](CCC(=O)O)C(=O)O)C(=O)O)C(=O)N[C@H](CCCCNC(=O)CCC(=O)NCCC[C@@H](NC(=O)CC[C@H](NC(=O)N[C@@H](CCC(=O)O)C(=O)O)C(=O)O)C(=O)O)C(=O)O)cc1)C(C)(C)C [SiFA-PSMA ligand 01 k] | −2.99 ± 0.02 | 61.61 ± 1.33% | ≥98.9% | 29.4 ± 0.6 nM | –
6 | CC(C)(C)[Si](F)(c1ccc(C(=O)NC[C@@H](NC(=O)[C@H](N)CNC(=O)CC[C@H](NC(=O)N[C@@H](CCC(=O)O)C(=O)O)C(=O)O)C(=O)N[C@H](CCCCNC(=O)CCC(=O)NCCC[C@@H](NC(=O)CC[C@H](NC(=O)N[C@@H](CCC(=O)O)C(=O)O)C(=O)O)C(=O)O)C(=O)O)cc1)C(C)(C)C [SiFA-PSMA ligand 02 a] | −3.65 ± 0.09 | 231.60 ± 14.21% | ≥98.9% | – | 10.2 ± 1.2 nM
7 | CC(C)(C)[Si](F)(c1ccc(C(=O)NC[C@@H](NC(=O)CCCCCNC(=O)CC[C@H](NC(=O)N[C@@H](CCC(=O)O)C(=O)O)C(=O)O)C(=O)N[C@H](CCCCNC(=O)CCC(=O)NCCC[C@@H](NC(=O)CC[C@H](NC(=O)N[C@@H](CCC(=O)O)C(=O)O)C(=O)O)C(=O)O)C(=O)O)cc1)C(C)(C)C [SiFA-PSMA ligand 02 c] | −3.27 ± 0.02 | 156.95 ± 13.21% | ≥99.0% | 5.9 ± 1 nM | –
8 | CC(C)(C)[Si](F)(c1ccc(C(=O)NC[C@@H](NC(=O)CCCCCNC(=O)CC[C@@H](NC(=O)N[C@H](CCC(=O)O)C(=O)O)C(=O)O)C(=O)N[C@H](CCCCNC(=O)CCC(=O)NCCC[C@@H](NC(=O)CC[C@H](NC(=O)N[C@@H](CCC(=O)O)C(=O)O)C(=O)O)C(=O)O)C(=O)O)cc1)C(C)(C)C [SiFA-PSMA ligand 02 d] | −3.24 ± 0.03 | 119.56 ± 5.84% | ≥98.9% | – | 9.9 ± 0.8 nM
9 | CC(C)(C)[Si](F)(c1ccc(C(=O)NC[C@@H](NC(=O)CNC(=O)CNC(=O)CNC(=O)CC[C@H](NC(=O)N[C@@H](CCC(=O)O)C(=O)O)C(=O)O)C(=O)N[C@H](CCCCNC(=O)CCC(=O)NCCC[C@@H](NC(=O)CC[C@H](NC(=O)N[C@@H](CCC(=O)O)C(=O)O)C(=O)O)C(=O)O)C(=O)O)cc1)C(C)(C)C [SiFA-PSMA ligand 02 e] ({Glu-CO-γGlu}-GGG[dDap](Benzoyl(4-SiFtBu2))[dK]([Suc-X1])-OH) | −3.50 ± 0.04 | 190.26 ± 16.87% | ≥98.9% | – | 9 ± 2.2 nM
10 | CC(C)(C)[Si](F)(c1ccc(C(=O)NC[C@@H](NC(=O)[C@@H](CC(=O)O)NC(=O)[C@@H](CCC(=O)O)NC(=O)[C@H](N)CCC(=O)O)C(=O)N[C@H](CCCCNC(=O)CCC(=O)NCCC[C@@H](NC(=O)CC[C@H](NC(=O)N[C@@H](CCC(=O)O)C(=O)O)C(=O)O)C(=O)O)C(=O)O)cc1)C(C)(C)C [SiFA-PSMA ligand 03 a] (H-[dE][dE][dD][dDap](Benzoyl(4-SiFtBu2))[dK]([Suc-X1])-OH) | −3.80 ± 0.06 | 135.74 ± 6.70% | 98.8% | 9.3 ± 1.7 nM | –
11 | CC(C)(C)[Si](F)(c1ccc(C(=O)NC[C@@H](NC(=O)[C@@H](CCC(=O)O)NC(=O)[C@@H](CCC(=O)O)NC(=O)[C@H](N)CCC(=O)O)C(=O)N[C@H](CCCCNC(=O)CCC(=O)NCCC[C@@H](NC(=O)CC[C@H](NC(=O)N[C@@H](CCC(=O)O)C(=O)O)C(=O)O)C(=O)O)C(=O)O)cc1)C(C)(C)C [SiFA-PSMA ligand 03 b] (H-[dE][dE][dE][dDap](Benzoyl(4-SiFtBu2))[dK]([Suc-X1])-OH) | −3.85 ± 0.04 | 135.78 ± 5.50% | 98.9% | 8.8 ± 1 nM | –
12 | CC(C)(C)[Si](F)(c1ccc(C(=O)NC[C@@H](NC(=O)[C@@H](CCCNC(N)=O)NC(=O)[C@@H](CCC(=O)O)NC(=O)[C@H](N)CCC(=O)O)C(=O)N[C@H](CCCCNC(=O)CCC(=O)NCCC[C@@H](NC(=O)CC[C@H](NC(=O)N[C@@H](CCC(=O)O)C(=O)O)C(=O)O)C(=O)O)C(=O)O)cc1)C(C)(C)C [SiFA-PSMA ligand 03 c] (H-[dE][dE][dCit][dDap](Benzoyl(4-SiFtBu2))[dK]([Suc-X1])-OH) | −3.31 ± 0.02 | 87.55 ± 2.28% | 98.6% | 11.7 ± 1.5 nM | –
13 | CC(C)(C)[Si](F)(c1ccc(C(=O)NC[C@@H](NC(=O)[C@@H](CN)NC(=O)[C@@H](CCC(=O)O)NC(=O)[C@H](N)CCC(=O)O)C(=O)N[C@H](CCCCNC(=O)CCC(=O)NCCC[C@@H](NC(=O)CC[C@H](NC(=O)N[C@@H](CCC(=O)O)C(=O)O)C(=O)O)C(=O)O)C(=O)O)cc1)C(C)(C)C [SiFA-PSMA ligand 03 d] (H-[dE][dE][dDap][dDap](Benzoyl(4-SiFtBu2))[dK]([Suc-X1])-OH) | −3.42 ± 0.05 | 171.82 ± 9.57% | 97.2% | 9.1 ± 0.8 nM | –
